This is an account of results in PubChem BioAssay (NCI).

Holding throughout (assay): NCI-60 cell line screen, 48 h
Assay [1] deals with DU-145 prostate.
The subject of assay [2] is MALME-3M melanoma.
Assay [3] concerns 786-0 renal.
In assay [4] the test system is OVCAR-3 ovarian.
For assay [5], the system named is OVCAR-8 ovarian.
The test system of assay [6] is ACHN renal.
Assay [7] concerns NCI-H460 lung.
Assay [8] has as its system IGROV1 ovarian.
In assay [9] the test system is UO-31 renal.
The test system of assay [10] is SW-620 colon.

Several values for one entry are separate records, joined by “and”; a condition that tells them apart may be missing. Identical values can stand only once.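 Five compound concentrations were applied to cells in 96-well plates for 48 hours; endpoints were derived by simple linear interpolation of the resulting dose-response curve. Abbreviation: GI50, concentration required for 50% inhibition of growth. TGI marks complete inhibition of growth.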

For `CCN(CC)CCC(CNc1ccnc2cc(Cl)ccc12)c1ccc(OC)cc1` (stereo not given), the GI50 is 21.9 µM and 26.7 µM in [1]; 1.95 µM and 1.86 µM in assay [2]; 11.9 µM and 3.46 µM in [3]; 16.7 µM and 6.96 µM in assay [4]; 5.76 µM and 4.78 µM in assay [5]; 5.24 µM and 2.77 µM in assay [6]. In addition, the GI50 is 11.1 µM and 4.91 µM in assay [7]; 10.7 µM and 4.28 µM in assay [8]; 1.54 µM and 1.88 µM in [9]; 8.16 µM and 4.1 µM in [10]. Further, the TGI in assay [1] was above 100 µM; in assay [2], 3.76 µM and 3.64 µM; in assay [3], 25.8 µM and 11.8 µM; in [4], 66.3 µM and 33.1 µM; in assay [5], 27.2 µM and 19.3 µM; in assay [6] it was 19.1 µM and 9.6 µM. The TGI was 25.6 µM and 24.7 µM in assay [7]; 39.8 µM and 24.2 µM in assay [8]; 4.35 µM and 11.6 µM in [9]; 22.6 µM and 21.7 µM in assay [10].
As to `[Cl][Hg][c]1cc(Br)cc(Br)c1`, the GI50 in [1] is 2.77 µM; in [2], 1.69 µM; in [3] it was 1.69 µM; in [4], 1.19 µM; in assay [5] it was 2.78 µM; in [6], 3.83 µM. Further, the GI50 in assay [7] was 2.05 µM; in assay [8] it was 1.47 µM; in assay [9], 4.64 µM; in assay [10], 1.74 µM. The TGI in assay [1] came out at 10.6 µM; in assay [2], 3.28 µM; in [3], 3.2 µM; in [4], 2.46 µM; in assay [5] it was 7.64 µM; in assay [6], 14.8 µM. Further, the TGI turned out to be 7.61 µM in assay [7], 3.41 µM in [8], 15.5 µM in assay [9] and 3.52 µM in assay [10].
Take `O=C(Nc1ccc(Cl)cc1F)c1ccccc1O`: the GI50 in assay [1] was 4.13 µM; in [2] it was 2.26 µM; in assay [3], 3.44 µM; in [4], 2.98 µM; in assay [5], 3.61 µM; in [6] it was 2.36 µM. Further, the GI50 was 3.21 µM in assay [7], 1.43 µM in assay [8], 1.25 µM in [9] and 3.26 µM in assay [10]. Moreover, the TGI in [1] was above 100 µM; in assay [2], 8.8 µM; in [3], above 100 µM; in [4], above 100 µM; in [5] it was above 100 µM; in assay [6] it was 7.54 µM. The TGI was 19.7 µM in [7], 64.3 µM in [8], 6.65 µM in assay [9] and above 100 µM in assay [10].
As for `C=CCCCCC/C=C\[C@H](O)C#CC#C/C=C/CO`, the GI50 in assay [1] is 66.3 µM; in assay [2], 54 µM; in assay [3], 29.3 µM; in assay [4], 31.7 µM; in assay [5], 20.2 µM; in assay [6], above 100 µM. For the same molecule, the GI50 in assay [7] is above 100 µM; in [8], 19.4 µM; in assay [9] it was 61.9 µM; in assay [10], 27 µM. Moreover, the TGI was above 100 µM in assay [1]; above 100 µM in [2]; 82.2 µM in assay [3]; 80.3 µM in [4]; 52 µM in assay [5]; above 100 µM in [6]. Also, the TGI is above 100 µM in assay [7], 53.7 µM in assay [8], above 100 µM in [9] and 78.5 µM in [10].
`COc1ccc2c(c1)CCCC(Br)C2=O` (stereo not given): the TGI in assay [1] is 44.9 µM; in assay [2] it was 21.5 µM; in [3], above 30 µM; in assay [4] it was 37.7 µM; in assay [5], above 31.9 µM; in [6] it was 20.7 µM. In addition, the TGI in assay [7] is 10.5 µM; in [8], 4.28 µM; in assay [9] it was 4.71 µM; in assay [10], above 33.3 µM.
In the case of `S=C1NC2(CCCCCC2)NN1c1ccccc1`, the TGI in assay [1], in assay [2], in assay [3], in assay [4], in [5] and in assay [6] was above 100 µM throughout. Moreover, the TGI in assay [7], in assay [8], in assay [9] and in assay [10] was above 100 µM throughout.
As to `CCN(CC)CCCC(CNc1ccnc2cc(Cl)ccc12)c1ccc(Cl)cc1` (stereo not given), the GI50 in assay [1] is 3.84 µM and 4.19 µM; in assay [2] it was 1.41 µM and 1.25 µM; in assay [3], 1.43 µM and 1.57 µM; in assay [4], 2.46 µM and 2.38 µM; in assay [5], 2.61 µM and 1.57 µM; in assay [6], 1.31 µM and 0.705 µM. In addition, the GI50 in [7] is 1.9 µM and 1.74 µM; in assay [8] it was 2.42 µM and 1.6 µM; in assay [9], 0.891 µM and 0.974 µM; in [10], 1.43 µM and 1.55 µM. In addition, the TGI in assay [1] was 15.5 µM and 19 µM; in [2] it was 3.02 µM and 2.72 µM; in [3], 2.85 µM and 2.97 µM; in [4] it was 7.73 µM and 9.83 µM; in assay [5], 7.61 µM and 3.99 µM; in assay [6], 2.89 µM and 2.07 µM. The TGI was 3.95 µM and 3.82 µM in [7]; 7.47 µM and 4.55 µM in assay [8]; 2.24 µM and 2.31 µM in [9]; 3.02 µM and 3.35 µM in [10].
